Measurements from patent US12441757B2, “Platform for screening NAD+ binding proteins in a cellular context” (OREGON HEALTH & SCIENCE UNIVERSITY, priority 2020, dated 2025).

Assays:
PARP-10 = biological target: T1, PARP-10 (Homo sapiens, UniProt Q53GL7); experiment: In vitro PARP-10 auto-MARylation activity assay; type: biochemical
T1 construct: Full length His6-PARP-1 and His6-SUMO-PARP-10 proteins we expressed and purified; His6 (N); SUMO (N); made in house
T1 sequence (Q53GL7 1-1025): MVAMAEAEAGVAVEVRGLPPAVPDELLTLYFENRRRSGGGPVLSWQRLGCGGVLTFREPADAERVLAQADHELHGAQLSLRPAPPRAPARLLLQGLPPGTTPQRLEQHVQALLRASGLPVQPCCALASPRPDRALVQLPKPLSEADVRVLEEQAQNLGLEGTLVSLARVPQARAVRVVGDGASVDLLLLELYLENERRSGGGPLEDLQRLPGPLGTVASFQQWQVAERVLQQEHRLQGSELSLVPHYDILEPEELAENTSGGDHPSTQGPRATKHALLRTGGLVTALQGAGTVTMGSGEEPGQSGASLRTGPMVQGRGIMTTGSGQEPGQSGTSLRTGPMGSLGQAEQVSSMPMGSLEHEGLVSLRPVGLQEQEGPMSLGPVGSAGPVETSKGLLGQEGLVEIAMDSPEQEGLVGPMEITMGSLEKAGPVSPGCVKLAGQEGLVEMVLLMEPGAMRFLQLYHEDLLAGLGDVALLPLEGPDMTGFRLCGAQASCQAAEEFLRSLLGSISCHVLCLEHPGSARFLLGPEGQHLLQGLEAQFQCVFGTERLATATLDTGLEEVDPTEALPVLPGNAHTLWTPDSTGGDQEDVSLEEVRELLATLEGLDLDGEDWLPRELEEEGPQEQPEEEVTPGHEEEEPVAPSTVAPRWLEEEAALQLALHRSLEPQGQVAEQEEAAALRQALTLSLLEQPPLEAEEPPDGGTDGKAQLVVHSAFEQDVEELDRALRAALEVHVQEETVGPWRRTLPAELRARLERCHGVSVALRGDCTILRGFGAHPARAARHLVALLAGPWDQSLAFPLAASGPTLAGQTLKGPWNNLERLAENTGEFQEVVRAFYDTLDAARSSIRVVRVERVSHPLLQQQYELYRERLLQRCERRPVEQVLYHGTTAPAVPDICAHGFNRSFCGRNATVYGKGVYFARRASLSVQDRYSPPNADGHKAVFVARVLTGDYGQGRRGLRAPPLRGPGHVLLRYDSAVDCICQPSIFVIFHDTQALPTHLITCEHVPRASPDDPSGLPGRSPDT
Protocol: FIG. 5. A clickable NAD^+ PAL probe (2-ad-BAD) inhibits PARP-1 and PARP-10 activity in concentration response. (FIG. 5A) 50 nM of recombinant His6-PARP-1 was incubated with 10 μg/mL activated DNA in 100 mM NaCl, 50 mM HEPES [pH 7.4], 4 mM MgCl2, 0.2 mM TCEP for 10 min, then treated with indicated competitor (BAD or the PARP-1 inhibitor NMS-P118) for additional 10 min. 50 μM NAD^+ was then added to initiate auto-PARylation of PARP-1. After 10 min, the reaction was quenched by addition of 4× Laemmli sample buffer and boiling at 95° C. for 5 min. Protein samples were separated by SDS-PAGE, transferred onto nitrocellulose and probed with indicated antibodies. (FIG. 5B) Experiments were performed essentially as in (5A) with the exception that damaged DNA was omitted and the PARP-10 inhibitor ITK6 was used instead of NMS-P118. (FIG. 5C) Densitometry analyses of (5A) and (5B) comparing inhibitory effect of BAD on PARP-1 and PARP-10 auto-ADP-ribosylation. Data are mean±SEM of 3 independent experiments. […]
Samples were run on 10% or 12% acrylamide gels for ˜1 h at 180 V in Mini-PROTEAN Tetra cell (Biorad). […] Band intensities we quantified with ImageJ.

[1] = system: inosine monophosphate dehydrogenase; conditions: cited from earlier work

relative potency against PARP-10 compared to PARP-1 (PARP-10; auto-ADP-ribosylation assays, densitometry): the opposite was true | inhibition of PARP-10 auto-MARylation (PARP-10; dose response, 50 μM NAD^+, anti-ADPr immunoblot): inhibited
SMILES: NC(=O)c1cccc([C@@H]2O[C@H](COP(=O)(O)OP(=O)(O)OC[C@H]3O[C@@H](n4cnc5c(N)ncnc54)[C@H](O)[C@@H]3O)[C@@H](O)[C@H]2O)c1 [BAD, benzamide adenine dinucleotide]
binding to and inhibition of NAD^+/NADH binding enzymes (e.g., inosine monophosphate dehydrogenase) [1]: binds to and inhibits
